Source: patent publication US5204327A, “Treatment of cerebral edema with ANP pharmaceutical compositions” (Ashi Kasei Kogyo Kabushiki Kaisha, priority 1988, dated 1993)

Assays:
[1] = tested on: ischemic cerebral edema caused by occlusion of middle cerebral artery; assay: Effect on experimental ischemic cerebral edema (MCA occlusion, Tamura model); type: in vivo, male Wistar rats; conditions: rats
Procedure: Using 41 male Wistar rats weighing 250 to 350 g, model animals of ischemic cerebral edema caused by occlusion of middle cerebral artery (hereinafter referred to as "MCA") were prepared according to the method of Tamura et al. (Journal of Cerebral Blood Flow and Metabolism, 1, 53-69 (1981)).
Peptide (II) obtained in Reference Example 1 was diluted with a physiological saline so that the peptide concentration became 100 μg/10 ml. The solution containing the peptide was continuously administered to eleven rats through the tail vein thereof in an amount of 10 ml per kg of body weight in 20 min so that the total dose of the administered peptide became 100 μg per kg of body weight.
The administration was conducted 6 times according to the following program. The first administration was conducted 30 minutes after the occlusion of MCA. The second administration was conducted in the morning of the next day of the first administration (2nd day). The third administration was conducted after 6 hours from the second administration. The fourth administration was conducted in the morning of the next day of the third administration (3rd day). […]
After one hour from the sixth administration, that is, 3 days after the rats had been subjected to occlusion of MCA, the rats were sacrificed. […] The water content of each of the hemispheres was measured.
The water content of a brain tissue was calculated by the following formula: [formula] wherein: W1 : weight of the cerebral hemisphere (wet basis)
W2 weight of the cerebral hemisphere (dry basis), which is measured after drying the wet cerebral hemisphere at 95° to 100° C. for 3 days.
The water contents calculated were statistically analyzed by the T-test to determine whether or not there is a significant difference between the water content of each of the groups to which peptide (II), peptide (III) and glycerol were individually administered and the water content of the control group to which physiological saline was administered. […]

[2] = tested on: vasogenic cerebral edema caused by cold injury; assay: Effect on experimental vasogenic cerebral edema (cold injury); type: in vivo, male Crj:CD (SD) rats; conditions: rats
Procedure: Using 42 male Crj:CD (SD) rats weighing 300 to 400 g, model animals of vasogenic cerebral edema caused by cold injury were prepared according to the method of Naruse et al. (Brain and Nerve, 33 (6): 569-575 (1981)). (Administration method)
Peptide (II) obtained in Reference Example 1 was diluted with a physiological saline so that the peptide concentration became […]. The solution containing the peptide was continuously administered to eleven rats through the tail vein thereof in an amount of […] of body weight so that the total dose of the administered peptide became 100 μg per kg of body weight, to thereby obtain a peptide (II)-administeredgroup.
Peptide (III) was administered to eight rats in the same manner as described above except that peptide (III) was used instead of peptide (II), to thereby obtain a peptide (III)-administered group.
As a control (solvent), 3 ml per kg of body weight of the physiological saline was administered to eleven rats in substantially the same manner as mentioned above, to thereby obtain a physiological saline-administered group.
As a control for the peptide, an aqueous 10% w/v glycerol solution containing 5% w/v fructose and 0.9% w/v sodium chloride was administered to twelve rats so that the total volume of the administered solution became 10 ml per kg of body weight, to thereby obtain a glycerol-administered group.
The administration of each of the peptide (II) solution, peptide (III) solution and physiological saline was started one hour before the making of cold injury and completed in 90 minutes. On the other hand, the administration of the glycerol solution was started 23 hours after the making of cold injury and completed in 30 minutes in accordance with the ordinary clinical method, so that the total volume of the administered glycerol solution became 10 ml/kg of body weight.
24 hours after the rats had been subjected to cold injury, rats were sacrificed under ether anesthesia. […]
The water content of each of the hemispheres was measured in substantially the same manner as in Example 1. […]

[3] = tested on: vasogenic cerebral edema caused by cold injury; assay: Effect on experimental vasogenic cerebral edema (investigation of administration time); type: in vivo, male Crj:CD (SD) rats; conditions: for Water content of injured cerebral hemisphere (the mean ± standard error): peptide 100 μg/kg, glycerol solution 10 ml/kg, 24 hours after injury
Procedure: Using 212 male Crj:CD (SD) rats weighing 300 to 400 g, model animals of vasogenic cerebral edema caused by cold injury were prepared according to the method of Naruse et al. (Brain and Nerve, 33 (6): 569-575 (1981).
Peptide (II) obtained in Reference Example 1 was diluted with a physiological saline so that the peptide concentration became […]. The solution containing the peptide was continuously administered to a predetermined number of rats through the tail vein thereof in an amount of 3 ml per kg of body weight in 90 min so that the total dose of the administered peptide became 100 μg per kg of body weight. Thus, there were obtained six peptide (II)-administered groups.
As a control (solvent), 3 ml per kg of body, weight of the physiological saline was administered to a predetermined number of rats in substantially the same manner as mentioned above, to thereby obtain six physiological saline-administered groups.
As a control for the peptide, an aqueous 10% w/v glycerol solution containing 5% w/v fructose and 0.9% w/v sodium chloride was administered to a predetermined number of rats in substantially the same manner as mentioned above so that the total volume of the administered solution became 10 ml per kg of body weight, to thereby obtain six glycerol-administered groups.
24 hours after the rats were subjected to injury, rats were exsanguinated under ether anesthesia to kill them. Then, cerebra were extracted from the killed rats and each of the cerebra was individually divided into two cerebral hemispheres, namely, a hemisphere having ischemic part and a hemisphere having no ischemic part. The water content of each of the hemispheres was measured in substantially the same manner as in Example 1. In Table 3, the mean and the standard error of the water content of a brain tissue are shown together with the number of rats (n) subjected to experiment in each group.

[4] = 3 days after MCA occlusion, peptide 100 μg/kg (glycerol 1 g/kg) tail vein, 6 administrations
[5] = 24 hours after cold injury, peptide 100 μg/kg tail vein started one hour before injury, 90 min, glycerol solution 10 ml/kg started 23 hours after injury

OCC(O)CO [Glycerol, glycerol]
Water content of brain tissue (the mean ± standard error), hemisphere having ischemic part [1, 4]: 79.34 ± 0.15 | Water content of brain tissue (the mean ± standard error), hemisphere having no ischemic part [1, 4]: 78.51 ± 0.14 | increase in water content of the cerebral hemisphere having ischemic part, compared to physiological saline-administered group ([1]; MCA occlusion, T-test): significantly inhibited | Water content of brain tissue (the mean ± standard error), injured cerebral hemisphere [2, 5]: 80.65 ± 0.23 | Water content of brain tissue (the mean ± standard error), not injured cerebral hemisphere [2, 5]: 79.62 ± 0.19 | increase in water content of the injured cerebral hemisphere, compared to physiological saline-administered group ([2]; cold injury): not so markedly inhibited | increase in water content of a cerebral hemisphere, compared to physiological saline-administered groups ([3]; administered just after making the cold injury): significantly inhibited | Water content of injured cerebral hemisphere (the mean ± standard error) ([3]; administration 3 hours after the making of cold injury): 81.08 ± 0.20 | Water content of injured cerebral hemisphere (the mean ± standard error) ([3]; administration 6 hours after the making of cold injury): 81.24 ± 0.19 | Water content of injured cerebral hemisphere (the mean ± standard error) ([3]; administration 22 hours after the making of cold injury): 81.05 ± 0.17 | Water content of injured cerebral hemisphere (the mean ± standard error) ([3]; administration during the making of cold injury): 80.79 ± 0.10 | Water content of injured cerebral hemisphere (the mean ± standard error) ([3]; administration just after the making of cold injury): 80.77 ± 0.14 | Water content of injured cerebral hemisphere (the mean ± standard error) ([3]; administration just before the making of cold injury): 81.22 ± 0.20 | increase in water content of the injured cerebral hemisphere, compared to physiological saline-administered groups ([3]; remaining administration times (all except just after the cold injury)): not significantly inhibited
